Here are results for 2 molecules from patent US9155752B2, “Liver function-improving agent” (UENO FINE CHEMICALS INDUSTRY, LTD., priority 2012, dated 2015).

Assay [1] has as its system C57BL/6 male mice fed high fat diet. Description: Fat vacuoles in hepatocytes, HE-stained liver tissue (Test Example 2). Conditions: for Fat vacuole area, Significant difference: 1% level; for Fat vacuole area (Mean ± Standard error): 8 weeks. The class given is in vivo. How it is done:
The following test was carried out in the same manner as in Test Example 1 for (1) test animal, (2) diet, and (3) preparation of sample. The diet and the sample water (test substance aqueous solution or distilled water) listed in Table 1 were administered to mice in each group and the animals were fed for 8 weeks. After 8-week test feeding, pentobarbital of 100 mg/kg of body weight was intraperitoneally administered to mice, and the mice were euthanized, and then liver was excised. The liver tissue excised from mice was stained with hematoxylin-eosin (HE) and a specimen observation under a microscope was carried out. Moreover, the results of microscopic observation were analyzed by the following method and a significant difference was evaluated by the t-test. […] This photographing was performed for four mice per group to obtain 16 microscopic images in total per group. At first, stained parts such as cytoplasm and nucleus in hepatocytes were selected by the image analysis. Then fat vacuole parts were selected by color inversion and the number of pixels for the selected fat vacuole parts was considered as a fat vacuole area. In the analysis, Dynamic Cell Count software accompanying fluorescence microscope BZ-9000 was used.

The test system is the same in assay [2]. Description: Blood AST value and blood ALT value after 8-week feeding (Test Example 1). The class given is in vivo. Also on record: key to Blood ALT value, Significant difference: *: a significant difference was observed at 1% level of significance relative to group 3. From the text:
Eight-week-old C57BL/6 male mice (CLEA Japan, Inc.) were divided at random into groups (each group: four animals) and then used. As a normal diet, solid diet MF (lipid component 5.3%, manufactured by Oriental Yeast Co., Ltd.) was used. As a high-fat diet, solid diet High Fat Diet 32 (lipid component 32.0%, manufactured by CLEA Japan, Inc.) was used. As a sample water, 2.5% by weight of aqueous sucrose solution, 2.25% by weight of aqueous maltitol solution, and 4.5% by weight of aqueous maltitol solution obtained by respectively dissolving, as a test substance, sucrose (manufactured by Wako Pure Chemical Industries, Ltd.) and maltitol (Whole Crystalline Maltitol Ueno 60M, having maltitol purity of 90%, manufactured by Ueno Fine Chemicals Industry, Ltd.) in distilled water were used. Distilled water was used as a negative sample. The sample water was administered by making it available ad libitum and the amount of sample water intake was recorded. The dose of sucrose per day calculated from the concentration of the sample water and the water intake was 3 g per 1 kg of body weight. The dose of maltitol per day calculated in the same manner as above was 2.7 g per 1 kg of body weight in mice receiving 2.25% aqueous maltitol solution, and 4.5 g per 1 kg of body weight in mice receiving 4.5% aqueous maltitol solution. The diet and the sample water (test substance aqueous solution or distilled water) listed in Table 1 were administered to mice in each group, and the animals were fed for 8 weeks. After 8-week test feeding, pentobarbital of 0.5 mg/10 g of body weight was intraperitoneally administered to mice, and blood was collected from the tail vein under deep anesthesia. With respect to the serum from the collected blood sample of mice, blood AST value and blood ALT value which are each an indicator of liver function were measured using a Transaminase C-II Test Wako Kit (Wako Pure Chemical Industries, Ltd.). A significant difference test by the t-test method was performed on blood AST values, blood ALT values, and blood ketone bodies values were evaluated by performing significant difference tests on these values via t-test.

[3] abbreviates: Group 3: high fat diet + 2.5% aqueous sucrose solution.
Where [4] appears, read: Group 3: high fat diet + 2.5% aqueous sucrose solution ad libitum, 8 weeks (3 g/kg/day).
Where [5] appears, read: Group 4: high fat diet + 2.25% aqueous maltitol solution.
Where [6] appears, read: Group 5: high fat diet + 4.5% aqueous maltitol solution.
The mark [7] stands for this setting: Group 4: high fat diet + 2.25% aqueous maltitol solution ad libitum, 8 weeks (2.7 g/kg/day).
[8] abbreviates: Group 5: high fat diet + 4.5% aqueous maltitol solution ad libitum, 8 weeks (4.5 g/kg/day).

As for `OC[C@H]1O[C@@](CO)(O[C@H]2O[C@H](CO)[C@@H](O)[C@H](O)[C@H]2O)[C@@H](O)[C@@H]1O` [sucrose, reference compound], the “Fat vacuole area, Significant difference” value in assay [1] (Group 3 (2.5% sucrose solution) relative to group 2 (high fat diet + distilled water)) is on record as “No”. In addition, in assay [1] (setting [3]), the “Fat vacuoles in microscopic observation” value is “reduction of the fat vacuoles is limited” and the “Fat vacuole area (Mean ± Standard error)” value came out at 306930 ± 28549 pixel. For the same molecule, in assay [2] (setting [4]), the “Blood ALT value (Mean ± Standard error)” value is 50 ± 12 IU/L and the “Blood AST value (Mean ± Standard error)” value is reported as 244 ± 107 IU/L.
`OC[C@@H](O)[C@@H](O[C@H]1O[C@H](CO)[C@@H](O)[C@H](O)[C@H]1O)[C@H](O)[C@@H](O)CO` [maltitol]: the “Fat vacuole area, Significant difference” value in assay [1] (Group 4 (2.25% maltitol solution) relative to group 2 (high fat diet + distilled water)) was “significantly smaller and Yes”; in assay [1] (Group 5 (4.5% maltitol solution) relative to group 2 (high fat diet + distilled water)), “significantly smaller and Yes”. Moreover, the “Fat vacuoles in microscopic observation” value in assay [1] (setting [5]) and in assay [1] (setting [6]) was “few fat vacuoles were observed” each time. For the same molecule, the entries for the “Fat vacuole area (Mean ± Standard error)” value in assay [1] (setting [5]) and in assay [1] (setting [6]) were 256145 ± 29037 pixel and 264982 ± 16387 pixel, respectively. Also, the “Blood AST value, change in words” value in assay [2] (Group 4 (2.25% aqueous maltitol solution) relative to group 3 (sucrose)) is “tendency to be decreased”; in assay [2] (Group 5 (4.5% aqueous maltitol solution) compared with group 1 (normal diet + distilled water)), “decreased to a level equivalent to that in group 1”. For the same molecule, the “Blood ALT value (Mean ± Standard error)” value in assay [2] (setting [7]) worked out at 41 ± 14 IU/L; in assay [2] (setting [8]), 11 ± 1 IU/L. For the same molecule, the “Blood AST value (Mean ± Standard error)” value in assay [2] (setting [7]) is reported as 205 ± 77 IU/L; in assay [2] (setting [8]) it was 54 ± 3 IU/L. The “Blood ALT value, change in words” value in assay [2] (Group 5 (4.5% aqueous maltitol solution) compared to group 3 (sucrose)) was “significantly decreasing the blood ALT value”. The “Blood ALT value, Significant difference” value in assay [2] (Group 5 (4.5% aqueous maltitol solution) relative to group 3 (sucrose), t-test) is “*”.
